Measurements: PubChem BioAssay AID1918932 (Molecular Pharmacology Branch, DTP, NCI, 2023)

System: 171881-019-R-J1-PDC complex spheroid viability
Assay: Anticancer human tumor 171881-019-R-J1-PDC patient-derived invasive breast carcinoma cell line growth inhibition
Details: for IC50: curve of first compound; for viability, T/C: stronger effect = lower value
Procedure, shortened: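 Multicellular complex spheroids of tumor cells with human endothelial cells (HUVEC) and mesenchymal stem cells; the LSD1 inhibitor iadademstat was combined with standard-of-care or investigational agents. Top concentration at or near clinical Cmax, half-log dilutions; final DMSO ≤0.25%.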

[1] = second compound 0.1 µM, first compound 0.00949 µM
[2] = second compound 0.1 µM, first compound 0.03 µM
[3] = second compound 0.1 µM, first compound 0.0949 µM
[4] = second compound 0.1 µM, first compound 0.3 µM
[5] = second compound 0.316 µM, first compound 0.00949 µM
[6] = second compound 0.316 µM, first compound 0.03 µM
[7] = second compound 0.316 µM, first compound 0.0949 µM
[8] = second compound 0.316 µM, first compound 0.3 µM
[9] = second compound 1 µM, first compound 0.00949 µM
[10] = second compound 1 µM, first compound 0.03 µM
[11] = second compound 1 µM, first compound 0.0949 µM
[12] = second compound 1 µM, first compound 0.3 µM
[13] = second compound 3.16 µM, first compound 0.00949 µM
[14] = second compound 3.16 µM, first compound 0.03 µM
[15] = second compound 3.16 µM, first compound 0.0949 µM
[16] = second compound 3.16 µM, first compound 0.3 µM
[17] = second compound 10 µM, first compound 0.00949 µM
[18] = second compound 10 µM, first compound 0.03 µM
[19] = second compound 10 µM, first compound 0.0949 µM
[20] = second compound 10 µM, first compound 0.3 µM
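Also: spheroids exposed to agents for 7 days after 3 days growth.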

## CCN(c1cc(-c2ccc(CN3CCOCC3)cc2)cc(C(=O)NCc2c(C)cc(C)[nH]c2=O)c1C)C1CCOCC1 + NC1CCC(NC2CC2c2ccccc2)CC1
Second compound 0.1 µM
  IC50: 2670 nM
Second compound 0.316 µM
  IC50: 2850 nM
Second compound 1 µM
  IC50: 2680 nM
Second compound 3.16 µM
  IC50: 2730 nM
Second compound 10 µM
  IC50: 2880 nM
[1]
  viability, T/C: 76.3%
[2]
  viability, T/C: 85%
[3]
  viability, T/C: 81.3%
[4]
  viability, T/C: 101%
Second compound 0.1 µM, first compound 0.949 µM
  viability, T/C: 74.1%
Second compound 0.1 µM, first compound 3 µM
  viability, T/C: 47.3%
[5]
  viability, T/C: 84.7%
[6]
  viability, T/C: 78.2%
[7]
  viability, T/C: 72.6%
[8]
  viability, T/C: 94.3%
Second compound 0.316 µM, first compound 0.949 µM
  viability, T/C: 76.6%
Second compound 0.316 µM, first compound 3 µM
  viability, T/C: 48.8%
[9]
  viability, T/C: 69.2%
[10]
  viability, T/C: 77.3%
[11]
  viability, T/C: 73.6%
[12]
  viability, T/C: 88.7%
Second compound 1 µM, first compound 0.949 µM
  viability, T/C: 79.9%
Second compound 1 µM, first compound 3 µM
  viability, T/C: 47%
[13]
  viability, T/C: 80.6%
[14]
  viability, T/C: 81.7%
[15]
  viability, T/C: 84.9%
[16]
  viability, T/C: 81.8%
Second compound 3.16 µM, first compound 0.949 µM
  viability, T/C: 70.3%
Second compound 3.16 µM, first compound 3 µM
  viability, T/C: 48.3%
[17]
  viability, T/C: 80.4%
[18]
  viability, T/C: 75.1%
[19]
  viability, T/C: 76.5%
[20]
  viability, T/C: 90.7%
Second compound 10 µM, first compound 0.949 µM
  viability, T/C: 77.9%
Second compound 10 µM, first compound 3 µM
  viability, T/C: 49%

## Cn1ncnc1C1c2n[nH]c(=O)c3cc(F)cc(c23)NC1c1ccc(F)cc1 (stereo not given) + NC1CCC(NC2CC2c2ccccc2)CC1
Second compound 0.1 µM
  IC50: > 100 nM
Second compound 0.316 µM
  IC50: > 100 nM
Second compound 1 µM
  IC50: > 100 nM
Second compound 3.16 µM
  IC50: > 100 nM
Second compound 10 µM
  IC50: > 100 nM
Second compound 0.1 µM, first compound 0.000316 µM
  viability, T/C: 92.3%
Second compound 0.1 µM, first compound 0.001 µM
  viability, T/C: 79.1%
Second compound 0.1 µM, first compound 0.00316 µM
  viability, T/C: 88.4%
Second compound 0.1 µM, first compound 0.01 µM
  viability, T/C: 79.3%
Second compound 0.1 µM, first compound 0.0316 µM
  viability, T/C: 81.4%
Second compound 0.1 µM, first compound 0.1 µM
  viability, T/C: 85.7%
Second compound 0.316 µM, first compound 0.000316 µM
  viability, T/C: 82.1%
Second compound 0.316 µM, first compound 0.001 µM
  viability, T/C: 76.3%
Second compound 0.316 µM, first compound 0.00316 µM
  viability, T/C: 69.3%
Second compound 0.316 µM, first compound 0.01 µM
  viability, T/C: 71.5%
Second compound 0.316 µM, first compound 0.0316 µM
  viability, T/C: 81.8%
Second compound 0.316 µM, first compound 0.1 µM
  viability, T/C: 76.7%
Second compound 1 µM, first compound 0.000316 µM
  viability, T/C: 78.9%
Second compound 1 µM, first compound 0.001 µM
  viability, T/C: 85.5%
Second compound 1 µM, first compound 0.00316 µM
  viability, T/C: 70.7%
Second compound 1 µM, first compound 0.01 µM
  viability, T/C: 71.7%
Second compound 1 µM, first compound 0.0316 µM
  viability, T/C: 73.5%
Second compound 1 µM, first compound 0.1 µM
  viability, T/C: 79.9%
Second compound 3.16 µM, first compound 0.000316 µM
  viability, T/C: 90%
Second compound 3.16 µM, first compound 0.001 µM
  viability, T/C: 78.8%
Second compound 3.16 µM, first compound 0.00316 µM
  viability, T/C: 59.2%
Second compound 3.16 µM, first compound 0.01 µM
  viability, T/C: 86.7%
Second compound 3.16 µM, first compound 0.0316 µM
  viability, T/C: 78.8%
Second compound 3.16 µM, first compound 0.1 µM
  viability, T/C: 85.7%
Second compound 10 µM, first compound 0.000316 µM
  viability, T/C: 73%
Second compound 10 µM, first compound 0.001 µM
  viability, T/C: 84.5%
Second compound 10 µM, first compound 0.00316 µM
  viability, T/C: 71%
Second compound 10 µM, first compound 0.01 µM
  viability, T/C: 76.3%
Second compound 10 µM, first compound 0.0316 µM
  viability, T/C: 72.6%
Second compound 10 µM, first compound 0.1 µM
  viability, T/C: 88.6%

## Nc1ncn(C2CC(O)C(CO)S2)c(=O)n1 (stereo not given) + NC1CCC(NC2CC2c2ccccc2)CC1
Second compound 0.1 µM
  IC50: 193 nM
Second compound 0.316 µM
  IC50: 175 nM
Second compound 1 µM
  IC50: 192 nM
Second compound 3.16 µM
  IC50: 202 nM
Second compound 10 µM
  IC50: 229 nM
Second compound 0.1 µM, first compound 0.000949 µM
  viability, T/C: 85.7%
Second compound 0.1 µM, first compound 0.003 µM
  viability, T/C: 82.5%
[1]
  viability, T/C: 94.3%
[2]
  viability, T/C: 105%
[3]
  viability, T/C: 70.9%
[4]
  viability, T/C: 37.2%
Second compound 0.316 µM, first compound 0.000949 µM
  viability, T/C: 91.2%
Second compound 0.316 µM, first compound 0.003 µM
  viability, T/C: 75.8%
[5]
  viability, T/C: 90.9%
[6]
  viability, T/C: 116%
[7]
  viability, T/C: 66.4%
[8]
  viability, T/C: 35.7%
Second compound 1 µM, first compound 0.000949 µM
  viability, T/C: 73.4%
Second compound 1 µM, first compound 0.003 µM
  viability, T/C: 84%
[9]
  viability, T/C: 94.8%
[10]
  viability, T/C: 101%
[11]
  viability, T/C: 66.8%
[12]
  viability, T/C: 39.3%
Second compound 3.16 µM, first compound 0.000949 µM
  viability, T/C: 85.1%
Second compound 3.16 µM, first compound 0.003 µM
  viability, T/C: 87.5%
[13]
  viability, T/C: 111%
[14]
  viability, T/C: 109%
[15]
  viability, T/C: 66.6%
[16]
  viability, T/C: 41.3%
Second compound 10 µM, first compound 0.000949 µM
  viability, T/C: 85.4%
Second compound 10 µM, first compound 0.003 µM
  viability, T/C: 90.8%
[17]
  viability, T/C: 98.8%
[18]
  viability, T/C: 93.8%
[19]
  viability, T/C: 69.1%
[20]
  viability, T/C: 44.1%
